According to US8575156B2, “Cyclic inhibitors of 11β-hydroxysteroid dehydrogenase 1” (Vitae Pharmaceuticals, Inc., priority 2007, dated 2013):
Read-outs that look alike come from different tables or passages of the source.

Biological target: 11β-HSD1 (Homo sapiens, UniProt P28845)
Assay: biochemical
Conditions: for IC50: IC50 Range, Biological Test Example 1, microsomes from CHO cells overexpressing human 11β-HSD1; for inhibition at 0.1 µM: read-out: Average % inhibition at 100 nM, Biological Test Example 1; for inhibition at 0.1111 µM: read-out: Average % inhibition at 111.1 nM, Biological Test Example 1, 111.1 nM compound

Chain of 11β-HSD1 (P28845 whole entry): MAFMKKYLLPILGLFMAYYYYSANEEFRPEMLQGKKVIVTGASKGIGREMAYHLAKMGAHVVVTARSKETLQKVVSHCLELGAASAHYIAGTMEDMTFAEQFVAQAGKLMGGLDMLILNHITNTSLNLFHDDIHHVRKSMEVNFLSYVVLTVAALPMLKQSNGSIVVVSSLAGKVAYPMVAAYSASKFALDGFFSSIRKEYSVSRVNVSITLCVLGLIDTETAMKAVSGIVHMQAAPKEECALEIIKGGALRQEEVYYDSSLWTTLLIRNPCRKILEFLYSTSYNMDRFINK

Row | Compound | IC50 | inhibition at 0.1 µM (100 nM) | inhibition at 0.1 µM (100 nM compound) | inhibition at 0.1111 µM
1 | C=CC[C@]1(c2ccc(F)cc2)CCN([C@@H](C)c2ccc(C(=O)OC)cc2)C(=O)O1 [EXAMPLE 124, Methyl 4-((S)-1-((R)-6-allyl-6-(4-fluorophenyl)-2-oxo-1,3-oxazinan-3-yl)ethyl)benzoate] | < 100 nM |  | 95.2% | 96.8%
2 | CC1(c2ccccc2)CCN(c2cccc(-c3cccc(-c4nnn[nH]4)c3)c2)C(=O)O1 (stereo not drawn) [EXAMPLE 49, 3-(3′-(1H-tetrazol-5-yl)biphenyl-3-yl)-6-methyl-6-phenyl-1,3-oxazinan-2-one] | 100 to 1000 nM |  |  | 15.4%
3 | CC1(c2ccccc2)CCN(c2cccc(-c3cccc(CO)c3)c2)C(=O)O1 (stereo not drawn) [EXAMPLE 39, 3-(3′-(hydroxymethyl)biphenyl-3-yl)-6-methyl-6-phenyl-1,3-oxazinan-2-one] | 100 to 1000 nM |  |  | 24.8%
4 | CC1(c2ccccc2)CCN(c2nc(-c3ccccc3)cs2)C(=O)O1 (stereo not drawn) [EXAMPLE 121, 6-methyl-6-phenyl-3-(4-phenylthiazol-2-yl)-1,3-oxazinan-2-one] | 100 to 1000 nM |  |  | 34.2%
5 | C[C@@H](C1CCCCC1)N1CC[C@](CCCO)(c2ccc(F)cc2)OC1=O [EXAMPLE 122, (R)-3-((S)-1-cyclohexylethyl)-6-(4-fluorophenyl)-6-(3-hydroxypropyl)-1,3-oxazinan-2-one] | < 100 nM |  | 94.1% | 95.6%
6 | CC(N)c1ccc(-c2ccc([C@H](C)N3CC[C@](CCCO)(c4ccccc4)OC3=O)cc2)s1 (stereo partly drawn) [EXAMPLE 251, (6R)-3-((1S)-1-(4-(5-(1-aminoethyl)thiophen-2-yl)phenyl)ethyl)-6-(3-hydroxypropyl)-6-phenyl-1,3-oxazinan-2-one] | < 100 nM |  | 90.9% | 
7 | C[C@@H](c1cccc(C(F)(F)F)c1)N1CC[C@](CCC(N)=O)(c2ccc(F)cc2)OC1=O [EXAMPLE 299, 3-((R)-6-(4-fluorophenyl)-2-oxo-3-((S)-1-(3-(trifluoromethyl)phenyl)ethyl)-1,3-oxazinan-6-yl)propanamide] | < 100 nM |  | 71.7% | 
8 | NCCC1(c2ccccc2)CCN(c2cccc(-c3ccc(F)cc3F)c2)C(=O)O1 (stereo not drawn) [EXAMPLE 75, 6-(2-aminoethyl)-3-(2′,4′-difluorobiphenyl-3-yl)-6-phenyl-1,3-oxazinan-2-one] | < 100 nM |  |  | 57.8%
9 | CNS(=O)(=O)c1ccc(-c2cccc(N3CCC(C)(c4ccccc4)OC3=O)c2)cc1 (stereo not drawn) [EXAMPLE 47, N-methyl-3′-(6-methyl-2-oxo-6-phenyl-1,3-oxazinan-3-yl)biphenyl-4-sulfonamide] | 100 to 1000 nM |  |  | 36.3%
10 | O=C1OC(CCO)(c2ccccc2)CCN1c1cccc(-c2ccc(F)cc2Cl)c1 (stereo not drawn) [EXAMPLE 68, 3-(2′-chloro-4′-fluorobiphenyl-3-yl)-6-(2-hydroxyethyl)-6-phenyl-1,3-oxazinan-2-one] | < 100 nM |  | 92% | 92.9%
11 | CC1(c2ccccc2)CCN(c2nccc(-c3ccc(F)cc3)n2)C(=O)O1 (stereo not drawn) [EXAMPLE 61, 3-(4-(4-fluorophenyl)pyrimidin-2-yl)-6-methyl-6-phenyl-1,3-oxazinan-2-one] | 100 to 1000 nM |  |  | 17.7%
12 | CSc1ccc(C2(C)CCN([C@@H](C)c3ccccc3)C(=O)O2)cc1 (stereo partly drawn) [EXAMPLE 90, 6-methyl-6-(4-(methylthio)phenyl)-3-((S)-1-phenylethyl)-1,3-oxazinan-2-one] | < 100 nM |  |  | 83.1%
13 | C[C@@H](C1CCCCC1)N1CC[C@](CCCNS(C)(=O)=O)(c2ccc(F)cc2)OC1=O [EXAMPLE 319, N-(3-((R)-3-((S)-1-cyclohexylethyl)-6-(4-fluorophenyl)-2-oxo-1,3-oxazinan-6-yl)propyl)methanesulfonamide] | < 100 nM | 93.4% |  | 
14 | C[C@@H](c1cccc(F)c1)N1CC[C@](CCC(N)=O)(c2ccc(F)cc2)OC1=O [EXAMPLE 288, 3-((R)-6-(4-fluorophenyl)-3-((S)-1-(3-fluorophenyl)ethyl)-2-oxo-1,3-oxazinan-6-yl)propanamide] | < 100 nM |  | 72.4% | 
15 | O=C1OC(CCO)(c2ccccc2F)CCN1c1cccc(-c2ccc(F)cc2Cl)n1 (stereo not drawn) [EXAMPLE 50, 3-(6-(2-chloro-4-fluorophenyl)pyridin-2-yl)-6-(2-fluorophenyl)-6-(2-hydroxyethyl)-1,3-oxazinan-2-one] | < 100 nM |  |  | 96.3%
16 | C=CCC1(c2ccccc2)CCN(c2cccc(Br)c2)C(=O)O1 (stereo not drawn) [EXAMPLE 63, 6-allyl-3-(3-bromophenyl)-6-phenyl-1,3-oxazinan-2-one] | < 100 nM |  |  | 59%
17 | COc1ccc([C@H](C)N2CC[C@](CCC(N)=O)(c3ccccc3)OC2=O)cc1 [EXAMPLE 315, 3-((R)-3-((S)-1-(4-methoxyphenyl)ethyl)-2-oxo-6-phenyl-1,3-oxazinan-6-yl)propanamide] | < 100 nM | 93.2% |  | 

More lines, now with the values ahead:

Row | IC50 | inhibition at 0.1 µM (100 nM) | inhibition at 0.1 µM (100 nM compound) | inhibition at 0.1111 µM | Compound
18 | < 100 nM | 94% |  |  | C=CCC1(c2ccc(F)cc2)CCN(Cc2c(Cl)cccc2Cl)C(=O)O1 (stereo not drawn) [EXAMPLE 346, 6-allyl-3-(2,6-dichlorobenzyl)-6-(4-fluorophenyl)-1,3-oxazinan-2-one]
19 | < 100 nM | 57.7% |  |  | C[C@@H](c1ccc(Br)cc1)N1CC[C@](CCN2CCNC(=O)C2)(c2ccc(F)cc2)OC1=O [EXAMPLE 379, (R)-3-((S)-1-(4-bromophenyl)ethyl)-6-(4-fluorophenyl)-6-(2-(3-oxopiperazin-1-yl)ethyl)-1,3-oxazinan-2-one]
20 | < 100 nM | 89.1% |  |  | C[C@@H](c1ccc(Br)cc1)N1CC[C@](CCC(C)(C)O)(c2ccc(F)cc2)OC1=O [EXAMPLE 373, (R)-3-((S)-1-(4-bromophenyl)ethyl)-6-(4-fluorophenyl)-6-(3-hydroxy-3-methylbutyl)-1,3-oxazinan-2-one]
21 | < 100 nM | 90.6% |  |  | Cc1nnc(CC[C@]2(c3ccccc3)CCN([C@@H](C)c3ccc(Br)cc3)C(=O)O2)o1 [EXAMPLE 595, (R)-3-((S)-1-(4-bromophenyl)ethyl)-6-(2-(5-methyl-1,3,4-oxadiazol-2-yl)ethyl)-6-phenyl-1,3-oxazinan-2-one]
22 | < 100 nM | 81.3% |  |  | C[C@@H](c1ccc(Cl)cc1)N1CC[C@](CCC(C)(C)O)(c2ccc(F)cc2)OC1=O [EXAMPLE 382, (R)-3-((S)-1-(4-chlorophenyl)ethyl)-6-(4-fluorophenyl)-6-(3-hydroxy-3-methylbutyl)-1,3-oxazinan-2-one]
23 | < 100 nM | 99.2% |  |  | Cc1ccc([C@H](C)N2CC[C@](CCCO)(c3ccc(F)cc3)OC2=O)cc1 [EXAMPLE 418, (R)-6-(4-fluorophenyl)-6-(3-hydroxypropyl)-3-((S)-1-p-tolylethyl)-1,3-oxazinan-2-one]
24 | < 100 nM | 95.3% |  |  | C[C@@H](c1ccc(F)cc1)N1CC[C@](CC(C)(C)O)(c2ccccc2)OC1=O [EXAMPLE 413, (S)-3-((S)-1-(4-fluorophenyl)ethyl)-6-(2-hydroxy-2-methylpropyl)-6-phenyl-1,3-oxazinan-2-one]
25 | < 100 nM | 93.7% |  |  | C[C@@H](c1ccc(Br)cc1)N1CC[C@](CCN(C)S(C)(=O)=O)(c2ccccc2)OC1=O [EXAMPLE 529, N-(2-((S)-3-((S)-1-(4-bromophenyl)ethyl)-2-oxo-6-phenyl-1,3-oxazinan-6-yl)ethyl)-N-methylmethanesulfonamide]
26 | < 100 nM | 94.4% |  |  | C[C@@H](c1ccc(F)cc1)N1CC[C@](CCCO)(c2ccccc2)OC1=O [EXAMPLE 414, (R)-3-((S)-1-(4-fluorophenyl)ethyl)-6-(3-hydroxypropyl)-6-phenyl-1,3-oxazinan-2-one]
27 | < 100 nM | 65% |  |  | C[C@@H](c1ccc(-c2ccc(F)cc2)cc1)N1CC[C@](CCN2CC[C@H](F)C2)(c2ccc(F)cc2)OC1=O [EXAMPLE 465, (R)-3-((S)-1-(4′-fluorobiphenyl-4-yl)ethyl)-6-(4-fluorophenyl)-6-(2-((S)-3-fluoropyrrolidin-1-yl)ethyl)-1,3-oxazinan-2-one]
28 | < 100 nM | 52.2% |  |  | C[C@@H](c1ccc(Br)cc1)N1CC[C@](CCN2CCC2)(c2ccc(F)cc2)OC1=O [EXAMPLE 374, (R)-6-(2-(azetidin-1-yl)ethyl)-3-((S)-1-(4-bromophenyl)ethyl)-6-(4-fluorophenyl)-1,3-oxazinan-2-one]
29 | < 100 nM | 52% |  |  | C[C@@H](c1ccc(F)cc1)N1CC[C@](CCC(C)(C)O)(c2ccc(F)cc2)OC1=O [EXAMPLE 410, (R)-6-(4-fluorophenyl)-3-((S)-1-(4-fluorophenyl)ethyl)-6-(3-hydroxy-3-methylbutyl)-1,3-oxazinan-2-one]
30 | < 100 nM | 96.8% |  |  | C[C@@H](c1ccc(Cl)c(F)c1)N1CC[C@](CCCNS(C)(=O)=O)(c2ccc(F)cc2)OC1=O [EXAMPLE 535, N-(3-((R)-3-((S)-1-(4-chloro-3-fluorophenyl)ethyl)-6-(4-fluorophenyl)-2-oxo-1,3-oxazinan-6-yl)propyl)methanesulfonamide]
31 | < 100 nM | 94.7% |  |  | C[C@@H](c1ccc(F)cc1)N1CC[C@](CC(C)(C)O)(c2ccc(F)cc2)OC1=O [EXAMPLE 407, (S)-6-(4-fluorophenyl)-3-((S)-1-(4-fluorophenyl)ethyl)-6-(2-hydroxy-2-methylpropyl)-1,3-oxazinan-2-one]
32 | < 100 nM | 89.7% |  |  | C[C@@H](c1ccc(Br)cc1)N1CC[C@](CC(=O)CO)(c2ccc(F)cc2)OC1=O [EXAMPLE 527, (S)-3-((S)-1-(4-bromophenyl)ethyl)-6-(4-fluorophenyl)-6-(3-hydroxy-2-oxopropyl)-1,3-oxazinan-2-one]
33 | < 100 nM | 94.7% |  |  | CC[C@@H](c1ccc(OC(F)F)cc1)N1CC[C@](CCC(N)=O)(c2ccccc2)OC1=O [EXAMPLE 537, 3-((R)-3-((S)-1-(4-(difluoromethoxy)phenyl)propyl)-2-oxo-6-phenyl-1,3-oxazinan-6-yl)propanamide]
